Source: a melting point compilation (Tetko et al.; mined from patent text by program, amines drawn as free bases though some values may be those of a salt)

For `COc1cc(C(=O)CSC)ccc1OC(C)=O`, the melting point was 70.4 °C.
For `FC(F)(F)c1cccc(Nc2ccccc2-c2n[nH]c(=S)o2)c1`, the melting point was 211 to 213 °C.
Work on `Oc1ccc2c(c1)[C@H](O)[C@H](Cc1cccnc1)CO2` (relative stereo) yielded a melting point of 144 to 147 °C.
`Oc1ccc2c(C3CCCCC3)nsc2c1` showed a melting point of 190 °C.
`Cc1ccc2c(c1)C=Cc1cc(C(C)C)ccc1C2c1cn(-c2ccnc(NCC(=O)Nc3nc(CC(=O)O)cs3)n2)c(=O)[nH]c1=O` (configuration not stated) gave a melting point of 215 to 220 °C.
With `COc1cc(OC)nc(OC(C(=O)O)C(OC)(c2ccccc2)c2ccccc2)n1` (configuration not stated) the melting point was 16 to 17 °C.
Work on `COc1c2c(nc3ccccc13)CCN(Cc1ccccc1)CC2` yielded a melting point of less than 20 °C.
`Cc1cc(-n2ccnc2)c2cccc(OCc3c(Cl)ccc(S(=O)(=O)N4CCC[C@H]4C(=O)NCCN4CCCC4)c3Cl)c2n1` showed a melting point of 105 °C.
`COc1cc(N2CCC(Br)C2=O)ccc1Cl` (configuration not stated) showed a melting point of 113 to 115 °C.
In the case of `CCCCCCCCCCCCCCCNC(=O)OCCOCCOC(=O)NCc1ccccn1`, the melting point is reported as 86 to 87 °C.
In the case of `O=C(CCS)NCCS`, the melting point is reported as 40 °C.
`CC(C)c1ccc(-c2ccc3c(c2)C=C(C(=O)Nc2ccc(CN(C)C4CCOCC4)cc2)CCS3(=O)=O)cc1` gave a melting point of 240 to 247 °C.
For `Cc1cc(CNc2cccc3c2CN(C2CCC(=O)NC2=O)C3=O)oc1C` (configuration not stated), the melting point was 237 to 239 °C.
Compound `OCCSc1cccc2nccn12` has a melting point of 99 to 100 °C.
`COC(=O)c1cccc2c(C#N)c[nH]c12` gave a melting point of 212 to 214 °C.
Compound `ON=C1C[C@H]2CC=CC[C@H]2C1` has a melting point of 100 to 103 °C.
`Cc1c(-c2ccccc2)nc2cc(Cl)ccc2c1C(=O)N[C@@H](C)C1CCCCC1` showed a melting point of 204 to 207 °C.
Compound `COc1ccc(Nc2nc(O)nc(NC3CCCCCC3)n2)cc1Cl` has a melting point greater than 310 °C.
In the case of `Cc1nn(CC(=O)c2ccc(Cl)cc2)c(=O)n1-c1ccc(N2CCN(c3ncc(O)cn3)CC2)cc1`, the melting point is reported as 225 °C.
In the case of `CCCCCCCCCCOc1ccc(C(=O)O)cc1C(C)(C)C`, the melting point is reported as 130 to 132 °C.
With `CC(C)c1cc(C(=O)O)oc1C(C)C` the melting point was 105 to 106 °C.
For `CN1CCC(C2(O)c3sccc3CCn3ncnc32)CC1` (configuration not stated), the melting point was 158 °C.
With `O=[N+]([O-])c1cnc(Sc2nccnc2Cl)s1` the melting point was 139 to 141 °C.
`CC(C)(C)OC(=O)c1cccc(-c2nc(=O)c3ccccc3s2)n1` gave a melting point of 185 to 186 °C.
For `CCC1(C)OC(c2ccc(S(N)(=O)=O)cc2)=C(c2ccc(OC)c(F)c2)C1=O` (configuration not stated), the melting point was 113 to 114 °C.
In the case of `N#CC(C(N)=O)=C1Cc2ccccc2SN1`, the melting point is reported as 260 to 267 °C.
Compound `CCOC(=O)Cn1c(=O)sc2ccc(C3=NNC(=O)NC3C)cc21` (configuration not stated) has a melting point of 200 to 202 °C.
Work on `CC(C)[Si](C#Cc1c2cc3ccccc3cc2c(C#C[Si](C(C)C)(C(C)C)C(C)C)c2cc3ccccc3cc12)(C(C)C)C(C)C` yielded a melting point of 210 °C.
For `Oc1ccc(CC2NCCC3=C2CCCC3)cc1` (single isomer, unassigned; (+)), the melting point was 154 to 156 °C.
Work on `COc1cc(C)cc(C2=NC(C)(C)CO2)c1N` yielded a melting point of 135 to 138 °C.
With `CN(C)CCCN1N=C2C(=Cc3ccccc3)CS(=O)CC2C1c1ccccc1` (configuration not stated) the melting point was 155 to 160 °C.
With `O=C(C=Cc1ccccc1)Oc1ccc2ccccc2c1` the melting point was 99 to 101 °C.
For `COc1ccccc1C=C1N=C(C)OC1=O`, the melting point was 151 to 153 °C.
In the case of `S=C(Nc1cc(Cl)cc(Cl)c1)Nc1cc(OCc2cccc3ccccc23)ccc1Br`, the melting point is reported as 149 to 151 °C.
Compound `COCC1CCCN1S(=O)(=O)c1cc2c(cc1Cl)N1CCCN=C1C2=O` (configuration not stated) has a melting point of 127 to 130 °C.
`Brc1ccc2c(c1)CCC=C2n1ccnc1` showed a melting point of 58 to 64 °C.
For `CC1Sc2nccn2C1(C)C(O)CCc1ccco1` (configuration not stated), the melting point was 144 to 145 °C.
Work on `Cn1cc(S(=O)(=O)C(F)(F)F)c(-c2ccc(Cl)cc2)c1Cl` yielded a melting point of 117 to 119 °C.
For `CC(C)Oc1cc(CCC(=O)NS(=O)(=O)c2ccccc2)n(Cc2ccc(Cl)cc2Cl)n1`, the melting point was 184 to 185 °C.
In the case of `C=CCOC(=O)c1ccc(C(=O)NCc2ccc3c(c2CO)C(C)(C)CCC3(C)C)cc1`, the melting point is reported as 140 to 145 °C.
`CC(C)N(O)C(=O)Nc1ccc(S(C)=O)cc1` (configuration not stated) showed a melting point of 136 °C.
`Cc1sc(Cc2ccccc2)c(-c2ccc(-c3ccc(OC(Cc4ccccc4)C(=O)O)cc3)cc2)c1C` (configuration not stated) showed a melting point of 142 to 144 °C.
`O=c1[nH]c2ccc(Br)cc2c(=O)n1CCS` gave a melting point of 334 to 336 °C.
In the case of `NCC1Cc2cc(-c3ccc(Cl)cc3)cc(F)c2O1` (configuration not stated), the melting point is reported as greater than 250 °C.
`CCOC(=O)C(=O)Nc1nccs1` gave a melting point of 174 to 177 °C.
With `CC(C)CC(=O)Nc1c(C(=O)C2CCCCC2)[nH]c2cc(Cl)ccc12` the melting point was 209 to 215 °C.
For `Cc1cccc2c1ccc1c(O)cc(=O)oc12`, the melting point was 223 to 225 °C.
Compound `N#Cc1cnc2c(Br)cccc2c1O` has a melting point greater than 260 °C.
Compound `CCOC(=O)c1sc(-n2ccc(OCc3ccc(C(F)(F)F)o3)cc2=O)nc1C` has a melting point of 196 to 198 °C.
Work on `CCN(CC)C(=O)c1ccc(C(c2ccccc2)C2CCNCC2)cc1` (configuration not stated) yielded a melting point of 160 to 162 °C.
For `C=C(C)c1nc2cc3c(cc2[nH]1)NC(=O)C3(C)C`, the melting point was 270 to 273 °C.
In the case of `Cc1nnc(-c2ccccc2F)n2nc(OCc3ncnn3C)c(-c3ccccc3)c12`, the melting point is reported as 159 to 162 °C.
